Values of other authors in US8679533B2, “Pramipexole once-daily dosage form” (Pharmacia Corporation, priority 2002, dated 2014).

Details: dihydrochloride salt, 20-25° C.

solubility in water: about 200 mg/ml
SMILES: CCCN[C@H]1CCc2nc(N)sc2C1 [pramipexole, (S)-2-amino-4,5,6,7-tetrahydro-6-(propylamino)-benzothiazole]
